Data reported in patent US20250109139A1, “TRICYCLIC COMPOUND, AND PREPARATION METHOD THEREFOR AND USE THEREOF” (SHANGHAITECH UNIVERSITY, priority 2022, published 2025).
Like-named read-outs stand apart in the source and are kept apart here.

Experiments:
[1] = Brain permeability test, single intraperitoneal dose in C57 male mice; format: in vivo; details: intraperitoneal 5 mg/kg; for concentration at 0.5 h / concentration at 2 h / Kp at 0.5 h / Kp at 2 h / Kp at 4 h / Kp / concentration at 4 h / AUC: male, C57, mouse; for Kp at 0.5 h / Kp at 2 h / Kp at 4 h / Kp: brain/plasma; for Kp at 0.5 h / Kp at 2 h / Kp at 4 h / Kp / AUC: ip; for Kp at 0.5 h: read-out: 0.5 h ratio (brain/plasma); for Kp at 2 h: read-out: 2.0 h ratio (brain/plasma); for Kp at 4 h: read-out: 4.0 h ratio (brain/plasma); for Kp: read-out: AUC ratio (brain/plasma)
Procedure: Using the same method as that in the pharmacokinetic experiment, 0.030 mL of blood was collected from the orbit of each animal at 0.5 hours, 2.0 hours, and 4.0 hours, and anticoagulated with EDTA-K2. Blood samples were placed on ice after collection, and plasma was separated by centrifugation within 30 minutes (centrifugation conditions: 5000 rpm, 10 minutes, 4° C.). The collected plasma was stored at −80° C. before analysis. […] The homogenate was stored at −80° C. before analysis. Drug concentrations in plasma and brain tissues were analyzed by LC/MS/MS for comparison.

[2] = target: T1, dopamine D2 receptors (Homo sapiens (Human), UniProt P14416); assay: Dopamine D2 receptor radioligand competition binding assay ([3H]-Methylspiperone); details: [3H]-Methylspiperone 0.3 to 0.5 nM, 293T membranes
In short: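 Membranes from cells transfected with human D2 receptor, PEI-mediated; competition with [3H]-methylspiperone for 2 h at room temperature in the dark.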

[3] = test system: MK801-induced hyperlocomotion in mice; assay: Open field test, MK801-induced hyperlocomotion (schizophrenia-like model); format: in vivo, C57B6 male mice; details: for inhibition of MK801-induced hyperlocomotion in mice (in words): at different doses
Procedure: Experimental method: The experimental animals were C57B6 male mice, n=8 in each group. In this model, C57B6 mice were used as experimental animals. Hyperlocomotion of the mice in open field was induced by acute injection of a NMDA antagonist MK801, and modeled to test the inhibitory effect of different compounds on hyperlocomotion phenotype induced by MK801 All mouse behavior experiments were carried out during the light period. The whole process was recorded by the camera, and locomotive data were tracked and analyzed by behavioral tracking software. The compounds were administered intraperitoneally. Immediately after the injection, the mice entered the open field and their movement trajectories were recorded by the camera. After 30 minutes, the mice received 0.2 mg/kg of MK801 by intraperitoneal injection and returned to the open field immediately after administration, and the movement trajectories were further recorded for 120 minutes. The accumulative travelled distance of the mice was counted in a 5-minute bin. Data statistics were performed using Student-t-test analysis, *p<0.05, **p<0.01, ***p<0.001, ****p<0.0001. The total travelled distance of the mice in the 0-45 minute interval after administration of the compounds of the present disclosure at different doses in combination with MK801 (0.2 mg/kg) is shown in Table 10.

[4] = target: T1, dopamine D2 receptors; assay: Dopamine D2 receptor β-arrestin2 BRET (recruitment); format: cell-based; details: for Emax: relative to endogenous ligand dopamine, read-out: β-arrestin2 BRET Emax % ± SEM
In short: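 G-protein assay: cells co-transfected with D2 receptor, Gαi1-Rluc, Gβ3 and Gγ9-GFP (1 μg each); β-arrestin2 assay: D2-Rluc, GRK2 and GFP2-β-arrestin2 co-transfected. Cells were reseeded after one day and tested on day three. Drug dilution series were added in duplicate with coelenterazine 400a (5 μM final), and the BRET signal was read.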

[5] = brain, read-out: 0.5 h brain concentration
[6] = plasma, read-out: 0.5 h plasma concentration
[7] = brain, read-out: 2.0 h brain concentration
[8] = plasma, read-out: 2.0 h plasma concentration
[9] = MK801 0.2 mg/kg + compound 0.0156 mg/kg i.p.
[10] = MK801 0.2 mg/kg + compound 0.0625 mg/kg i.p.
[11] = MK801 0.2 mg/kg + compound 0.25 mg/kg i.p.
[12] = unit printed only in Cariprazine cell, read-out: β-arrestin2 BRET EC50
[13] = read-out: Affinity pKi ± SEM (converted)
[14] = read-out: β-arrestin2 BRET pEC50 ± SEM (converted)
[15] = brain, read-out: 4.0 h brain concentration
[16] = plasma, read-out: 4.0 h plasma concentration

T1 sequence (P14416 whole entry): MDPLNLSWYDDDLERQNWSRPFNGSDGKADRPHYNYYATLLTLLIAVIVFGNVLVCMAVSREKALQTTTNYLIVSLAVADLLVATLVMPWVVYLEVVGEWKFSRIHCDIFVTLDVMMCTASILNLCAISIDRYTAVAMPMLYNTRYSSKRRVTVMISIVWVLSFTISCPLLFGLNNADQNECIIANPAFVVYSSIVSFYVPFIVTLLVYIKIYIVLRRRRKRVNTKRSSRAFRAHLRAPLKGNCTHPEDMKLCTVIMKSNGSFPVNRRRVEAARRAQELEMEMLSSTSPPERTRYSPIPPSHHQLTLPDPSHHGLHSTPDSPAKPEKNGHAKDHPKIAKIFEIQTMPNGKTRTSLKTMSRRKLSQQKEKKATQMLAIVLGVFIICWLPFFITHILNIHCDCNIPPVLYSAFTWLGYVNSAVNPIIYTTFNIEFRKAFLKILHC

Compound | concentration at 0.5 h [1, 5] | concentration at 0.5 h [1, 6] | concentration at 2 h [1, 7] | concentration at 2 h [1, 8] | Ki ([2]; read-out: Affinity Ki) | Distance travelled in 45 minutes [3, 9] | Distance travelled in 45 minutes [3, 10] | Distance travelled in 45 minutes [3, 11] | inhibition of MK801-induced hyperlocomotion in mice (in words) [3] | EC50 [4, 12] | Kp at 0.5 h [1] | Kp at 2 h [1] | Ki [2, 13] | EC50 [4, 14] | Emax [4] | AUC brain ([1]; brain) | Kp at 4 h [1] | Kp [1] | concentration at 4 h [1, 15] | concentration at 4 h [1, 16] | further results
COc1cccc2c3c(oc12)CN(CCCCOc1ccc2ccc(=O)[nH]c2c1)CC3 [I-A1, 7-(4-(8-methoxy-3,4-dihydrobenzofuro[2,3-c]pyridin-2(1H)-yl)butoxy)quinolin-2(1H)-one] | 1110 ± 43 ng/mL | 2220 ± 447 ng/mL | 236 ± 25 ng/mL | 397 ± 26.3 ng/mL | 84.4 nM | 9023 cm | 10706 cm | 3630 cm | significantly inhibit | 27.7 nM |  |  |  |  |  |  |  |  |  |  | Affinity pKi ± SEM [2]: (7.07 ± 0.02); β-arrestin2 BRET pEC50 ± SEM [4]: (7.62 ± 0.17)
COc1cccc2c3c(oc12)CN(CC[C@H]1CC[C@H](NC(=O)N(C)C)CC1)CC3 [I-A12, 3-(trans-4-(2-(8-methoxy-3,4-dihydrobenzofuro[2,3-c]pyridin-2(1H)-yl)ethyl)cyclohexyl)-1,1-dimethylurea] | 1400 ± 220 ng/mL | 830 ± 119 ng/mL | 455 ± 61 ng/mL | 202 ± 56.2 ng/mL | 436 nM | 12729 cm | 5648 cm | 2267 cm | significantly inhibit | 10.7 nM | 1.69 | 2.26 | 372 nM | 8.13 nM | 108% |  |  |  |  |  | 
COc1cccc2c3c([nH]c12)CN(CC[C@H]1CC[C@H](NC(=O)N(C)C)CC1)CC3 [I-B7, 3-(trans-4-(2-(8-methoxy-1,3,4,9-tetrahydro-2H-pyrido[3,4-b]indol-2-yl)ethyl)cyclohexyl)-1,1-dimethylurea] | 392 ± 15 ng/mL | 598 ± 19 ng/mL | 73 ± 129 ng/mL | 114 ± 67.9 ng/mL | 2.71 nM |  |  | 13668 cm | significantly inhibit | 0.24 nM | 0.656 | 0.643 | 1.82 nM | 0.107 nM | 44% |  |  |  |  |  | Distance travelled in 45 minutes ([3]; MK801 0.2 mg/kg + compound 1 mg/kg i.p.): 10199 cm; Distance travelled in 45 minutes ([3]; MK801 0.2 mg/kg + compound 4 mg/kg i.p.): 4360 cm
COc1cccc2c1cc1n2CCN(CCCCOc2ccc3ccc(=O)[nH]c3c2)C1 [I-C1, 7-(4-(9-methoxy-3,4-dihydropyrazino[1,2-a]indol-2(1H)-yl)butoxy)quinolin-2(1H)-one] | 1940 ± 63 ng/mL | 4060 ± 367 ng/mL | 732 ± 56 ng/mL | 1100 ± 89 ng/mL | 401 nM |  |  |  |  | 220 nM | 0.478 | 0.663 | 269 nM |  | 117% | 3385 ng·h/mL | 0.541 | 0.538 | 161 ± 55 ng/mL | 297 ± 106 ng/mL | AUC ([1]; plasma): 6290 ng·h/mL
COc1cccc2c1cc1n2CCN(CCCCOc2ccc3c(c2)NC(=O)CC3)C1 [I-C2, 7-(4-(9-methoxy-3,4-dihydropyrazino[1,2-a]indol-2(1H)-yl)butoxy)-3,4-dihydroquinolin-2(1H)-one] | 2800 ± 208 ng/mL | 3280 ± 456 ng/mL | 1260 ± 279 ng/mL | 1510 ± 545 ng/mL | 221 nM |  |  |  |  | 122 nM | 0.855 | 0.834 | 61.7 nM | 66.1 nM | 115% | 5561 ng·h/mL | 0.931 | 0.853 | 599 ± 54 ng/mL | 558 ± 100 ng/mL | AUC ([1]; plasma): 6520 ng·h/mL
